Reference: US20140148492A1, “BICYCLOSUBSTITUTED PYRAZOLE COMPOUNDS FOR TREATING HAIR LOSS” (Boehringer Ingelheim International GmbH, priority 2012, published 2014)

Target: T1, human CRTH2 receptor (Homo sapiens, UniProt Q9Y5Y4)
T1 construct: host or cells: CHO-K1 (CHO-K1-hCRTH2 cells), membranes prepared in house
T1 sequence (Q9Y5Y4 1-395): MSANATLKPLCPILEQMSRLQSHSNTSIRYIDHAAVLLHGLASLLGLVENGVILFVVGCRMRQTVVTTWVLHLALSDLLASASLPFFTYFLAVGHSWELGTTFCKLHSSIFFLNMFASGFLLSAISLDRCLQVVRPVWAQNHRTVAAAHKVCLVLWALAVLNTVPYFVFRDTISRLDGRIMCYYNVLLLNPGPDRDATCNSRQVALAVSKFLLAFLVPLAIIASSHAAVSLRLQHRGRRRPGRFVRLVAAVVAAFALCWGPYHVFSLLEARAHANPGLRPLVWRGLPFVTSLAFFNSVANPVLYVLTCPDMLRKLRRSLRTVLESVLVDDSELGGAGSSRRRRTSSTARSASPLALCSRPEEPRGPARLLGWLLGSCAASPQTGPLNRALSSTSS
Assay: CRTH2 receptor radioligand binding assay (SPA, [3H]-PGD2)
Conditions: displacement of [3H]-PGD2 (1 nM) from CHO-K1-hCRTH2 cell membranes, SPA format, 3 h room temperature
Method: The binding of CRTH2 antagonists is determined using membranes prepared from Chinese hamster ovary cells (CHO-K1 cells) transfected with the human CRTH2 receptor (CHO-K1-hCRTH2 cells, Perkin Elmer, Cat No ES-561-C). To produce cell membranes the CHO-K1-hCRTH2 cells are cultured in suspension in CHO SFMII medium supplemented with 400 μg/ml G418. The cells are harvested by centrifugation at 300 g for 10 min at room temperature. The cell pellet is resuspended in Phosphate Buffer Saline (PBS) including a protease inhibitor mix (Complete, Roche) and adjusted to a concentration of 10E7 cells/ml. The CHO-K1-hCRTH2 cells are disrupted by nitrogen […] to obtain the membrane preparation. Cell debris is removed by centrifugation (500 g at 4° C., 30 min) and the supernatant is transferred into fresh tubes followed by a second centrifugation at 40000 g for 1 h at 4° C. to sediment the membranes. The membranes are suspended in SPA incubation buffer (50 mM Tris HCl, 10 mM MgCl2, 150 mM NaCl, 1 mM EDTA, pH 7.4) without bovine serum albumin, homogenized by passing through a single use needle (Terumo, 23G×1″), and stored in aliquots at −80° C.
The CRTH2 receptor binding assay is performed in a scintillation proximity assay (SPA) format with the radioligand [^3H]-PGD2 (Perkin Elmer, NET616000MC). CHO-K1-hCRTH2 cell membranes are again homogenized by passing through a single use needle (Terumo, 23G×1″) and diluted in SPA incubation buffer in suitable concentrations (0.5-10 μg protein/well). The SPA assay is set up in 96 well microtiter plates (Perkin Elmer, CatNo. 6005040) in SPA incubation buffer with a final volume of 200 μl per well and final concentration of 50 mM Tris-HCl, 10 mM MgCl2, 150 mM NaCl, 1 mM EDTA pH 7.4, 0.1% bovine serum albumin). The SPA assay mixture contains 60 μl of the membrane suspension, 80 μl of Wheat Germ Agglutinin coated PVT beads (GE Healthcare, RPNQ-0001, 0.3 mg/well), 40 μl of [3H]-PGD2 diluted in SPA buffer to a final concentration of 1 nM (50 000 dpm) and 20 μl of the test compound (dissolved in dimethylsulfoxid). The SPA assay mixture is incubated for 3 h at room temperature. Bound radioactivity is determined with a scintillation counter (Micro Beta Trilux, Wallac).
The binding of [^3H]-PGD2 to CHO-K1-hCRTH2 cell membranes is determined in the absence (total binding, Bo) and presence (non-specific binding, NSB) of unlabelled PGD2 (1 μM, Cayman Chemical, Cat No 12010) or a reference CRTH2 antagonist (10 μM CAY10471, Cayman Chemical, Cat No 10006735).
Determination of the affinity of a test compound is calculated by subtraction of the non-specific binding (NSB) from the total binding (Bo) or the binding in the presence of the test compound (B) at a given compound concentration. […] The Bo-NSB value is set to 0% inhibition.

Compound	Ki [nM]
Cc1nn(Cc2ccc(NC(=O)c3oc4ccc(F)cc4c3C)cc2)c(C)c1CC(=O)O [Cmpd 4]	0.8
Cc1nn(Cc2ccc(NC(=O)c3cc4ccccc4[nH]3)cc2F)c(C)c1CC(=O)O [Cmpd 1]	0.8
CCn1c(C(=O)Nc2ccc(Cn3nc(C)c(CC(=O)O)c3C)c(F)c2)cc2cc(F)ccc21 [Cmpd 32]	0.2

Further compounds by falling Ki, results first:

Ki [nM]	Compound
1.2	CCc1c(C(=O)Nc2ccc(Cn3nc(C)c(CC(=O)O)c3C)cc2)oc2ccc(F)cc12 [Cmpd 48]
0.8	Cc1nn(Cc2ccc(NC(=O)c3cc4ccccc4o3)cc2)c(C)c1CC(=O)O [Cmpd 26]
0.6	Cc1nn(Cc2ccc(NC(=O)c3oc4ccc(F)cc4c3C)cc2F)c(C)c1CC(=O)O [Cmpd 27]
0.3	Cc1nn(Cc2ccc(NC(=O)c3oc4ccc(Br)cc4c3C)cc2F)c(C)c1CC(=O)O [Cmpd 45]
